Data from ChEMBL document CHEMBL1201862, “PubChem BioAssay data set” (2004).
Counter-ions that a name gives are not always drawn. Active and inactive are the calls of the source.

Experiments:
Leucine aminopeptidase = target: T1, Leucine aminopeptidase (Plasmodium falciparum 3D7, UniProt Q8IL11); assay: P. falciparum M17LAP inhibitors, primary screen, biochemical, fluorogenic H-Leu-NHMec substrate, 1536-well (AID 1619); assay type: functional
T1 sequence (Q8IL11 whole entry): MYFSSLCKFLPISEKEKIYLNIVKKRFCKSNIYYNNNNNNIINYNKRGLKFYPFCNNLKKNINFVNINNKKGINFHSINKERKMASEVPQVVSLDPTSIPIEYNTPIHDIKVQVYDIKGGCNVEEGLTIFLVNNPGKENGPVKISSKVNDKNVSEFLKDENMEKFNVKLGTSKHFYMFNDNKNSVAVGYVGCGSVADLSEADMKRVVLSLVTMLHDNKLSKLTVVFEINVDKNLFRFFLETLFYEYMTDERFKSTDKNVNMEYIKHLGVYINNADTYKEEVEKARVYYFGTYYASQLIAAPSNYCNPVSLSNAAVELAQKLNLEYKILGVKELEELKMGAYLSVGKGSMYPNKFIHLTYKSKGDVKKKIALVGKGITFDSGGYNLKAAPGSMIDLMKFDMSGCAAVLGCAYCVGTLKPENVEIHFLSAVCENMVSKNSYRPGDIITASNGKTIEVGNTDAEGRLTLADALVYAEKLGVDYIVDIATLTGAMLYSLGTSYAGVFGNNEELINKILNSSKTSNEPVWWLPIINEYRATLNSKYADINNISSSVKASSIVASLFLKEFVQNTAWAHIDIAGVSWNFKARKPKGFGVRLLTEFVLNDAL

Vero [1] = assay: cells; assay type: functional, cell-based; settings: Chlorocebus sabaeus
Vero [2] = assay: cells; assay type: functional; settings: Chlorocebus sabaeus
[3] = test system: Streptococcus sp. 'group A'; assay: growth inhibition of control SK(-) GAS strain, dose response, counter-screen for streptokinase expression inhibitor project, luminescence, kanamycin, BacTiterGlo, confirmation (AID 1900); assay type: functional, organism-based
Streptokinase A = target: T2, Streptokinase A (Streptococcus pyogenes serotype M1, UniProt P10520); assay: S. pyogenes streptokinase expression inhibitors, potency, dose response, plasminogen activation absorbance, OD405 (AID 1914); assay type: functional, Streptococcus pyogenes M1 GAS;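 note: secreted streptokinase activity via plasminogen activation per viability signal from cell pellet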
T2 sequence (P10520 whole entry): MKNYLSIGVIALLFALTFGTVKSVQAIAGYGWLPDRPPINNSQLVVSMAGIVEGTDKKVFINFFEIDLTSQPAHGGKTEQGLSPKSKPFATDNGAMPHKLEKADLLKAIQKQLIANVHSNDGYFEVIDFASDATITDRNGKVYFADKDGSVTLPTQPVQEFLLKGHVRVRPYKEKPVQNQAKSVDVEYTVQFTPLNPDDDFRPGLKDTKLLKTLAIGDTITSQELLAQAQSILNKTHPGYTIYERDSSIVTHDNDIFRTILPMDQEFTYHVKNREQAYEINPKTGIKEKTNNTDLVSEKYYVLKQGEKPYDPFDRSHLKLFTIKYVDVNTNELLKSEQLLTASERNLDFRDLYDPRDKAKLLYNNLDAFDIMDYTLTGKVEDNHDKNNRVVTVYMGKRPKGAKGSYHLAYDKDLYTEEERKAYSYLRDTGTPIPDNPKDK

Streptococcus = assay: Group A Streptococcus viability loss, dose response, counter-screen for streptokinase expression inhibitor project, luminescence, BacTiterGlo (AID 1915); assay type: functional, organism-based;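 note: potency for reduction of bacterial viability or growth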
[4] = A cytotoxicity screen of small molecule inhibitors of the PhoP region in Salmonella typhi identified in the primary screen. [Related pubchem assays: 1850, 1864, 1985 ]; assay type: functional
[5] = HEp-2 cell cytotoxicity, dose response, cytotoxicity control for RSV inhibitor project, HTS (AID 2410); assay type: functional; settings: human respiratory syncytial virus
[6] = target: Glyceraldehyde-3-phosphate dehydrogenase (Homo sapiens, UniProt P04406)
[7] = cytotoxicity in HPDE-C7 cells, cell-based, fluorescence, HTS (AID 430); assay type: functional; settings: Homo sapiens
[8] = cytotoxicity in KRAS-transformed pancreatic duct cells, primary screen, cell-based, fluorescence, HTS (AID 431); assay type: functional; settings: Homo sapiens;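 note: cell line used: HPDE-C7K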
[9] = Luminescence Cell-Based Dose Retest to Confirm Inhibitors of Cancer Stem Cells. [Related pubchem assays (depositor defined):AID2717, AID2721]; assay type: functional; settings: Homo sapiens
[10] = target: DNA dC->dU-editing enzyme APOBEC-3A (Homo sapiens, UniProt P31941); assay: APOBEC3A DNA deaminase inhibitors, dose response, biochemical (AID 504722); assay type: functional
[11] = target: DNA dC->dU-editing enzyme APOBEC-3G (Homo sapiens, UniProt Q9HC16); assay: Dose Response confirmation of small molecule APOBEC3G DNA Deaminase Inhibitors via a fluorescence-based single-stranded DNA deaminase assay. [Related pubchem assays (depositor defined):AID493012, AID493028]; assay type: functional
[12] = target: T3, Short transient receptor potential channel 4 (Mus musculus, UniProt Q9QUQ5); assay: mouse TRPC4 channel inhibitors, dose response, cell-based, HEK293 TRPC4/mu-opioid, Fluo-4 calcium (AID 434942); assay type: functional;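 note: potency of inhibitors blocking the TRPC4 calcium response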
T3 sequence (Q9QUQ5 whole entry): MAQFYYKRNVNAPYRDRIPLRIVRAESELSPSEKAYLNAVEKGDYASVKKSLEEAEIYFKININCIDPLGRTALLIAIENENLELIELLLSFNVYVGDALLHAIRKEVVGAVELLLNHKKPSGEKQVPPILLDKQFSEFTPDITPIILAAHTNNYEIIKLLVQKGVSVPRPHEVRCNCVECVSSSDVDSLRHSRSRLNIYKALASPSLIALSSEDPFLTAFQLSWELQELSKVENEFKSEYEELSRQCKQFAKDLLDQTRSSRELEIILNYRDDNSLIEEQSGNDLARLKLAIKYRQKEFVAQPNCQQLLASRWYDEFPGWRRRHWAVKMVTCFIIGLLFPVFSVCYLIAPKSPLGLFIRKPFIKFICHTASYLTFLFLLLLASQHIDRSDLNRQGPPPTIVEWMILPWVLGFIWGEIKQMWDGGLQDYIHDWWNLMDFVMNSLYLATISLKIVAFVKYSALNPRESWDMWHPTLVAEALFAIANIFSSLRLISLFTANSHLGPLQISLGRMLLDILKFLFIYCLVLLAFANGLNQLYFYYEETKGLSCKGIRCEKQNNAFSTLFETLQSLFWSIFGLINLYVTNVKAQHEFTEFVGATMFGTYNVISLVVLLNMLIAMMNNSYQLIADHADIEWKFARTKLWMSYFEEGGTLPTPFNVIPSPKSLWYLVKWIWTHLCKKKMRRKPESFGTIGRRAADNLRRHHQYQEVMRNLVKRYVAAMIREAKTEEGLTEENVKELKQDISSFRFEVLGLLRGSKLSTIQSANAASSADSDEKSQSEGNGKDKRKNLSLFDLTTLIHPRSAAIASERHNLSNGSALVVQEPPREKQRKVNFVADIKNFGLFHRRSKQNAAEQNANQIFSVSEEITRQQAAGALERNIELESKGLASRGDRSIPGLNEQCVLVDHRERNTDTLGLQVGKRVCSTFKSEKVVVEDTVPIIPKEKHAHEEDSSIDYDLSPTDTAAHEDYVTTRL

INS1 = assay: beta cell apoptosis inhibitors, cytokine rescue, dose response, luminescence, retest (AID 449756); assay type: functional, cell-based; settings: Rattus norvegicus;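 note: cell death triggered by IL-1 beta plus TNF-alpha plus IFN-gamma mixture; protective hits raise ATP signal compared with cytokine alone wells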
Cytochrome P450 2C19 = Cytochrome P450 2C19 (Homo sapiens, UniProt P33261); assay: Cytochrome panel assay with activity outcomes. Panel member name: p450-cyp2c19 Compounds with AC50 equal or less than 10 uM are considered active; assay type: functional; settings: read-out: AC50
Cytochrome P450 2D6 = Cytochrome P450 2D6 (Homo sapiens, UniProt P10635);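 note: CYP2D6 member of a cytochrome P450 panel assay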
[13] = P. falciparum Dd2 growth inhibitors, dose response, SYBR Green, cherry-picked samples (AID 1159567); assay type: functional, cell-based
[14] = inhibitors of firefly luciferase expression or activity, dose response, H4 neuroglioma cells, luminescence (AID 1990); assay type: functional, cell-based
[15] = Luminescence Cell-Based Dose Response HTS to Identify Inhibitors of 5'UTR Stem-Loop Driven Prion Protein mRNA Translation in H4 Neuroglioblastoma Cells. [Related pubchem assays: 1827 (Project Summary), 1813 (Primary HTS)]; assay type: functional
[16] = inhibitors of SNCA 5'UTR-driven reporter translation, confirmation, H4 neuroglioma cells, luminescence (AID 1988); assay type: functional, cell-based
[17] = growth suppression of PTEN-null colon cells, dose response, cell-based, HCT116 PTEN knockout (AID 1047); assay type: functional;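 note: HCT116 colon tumor cells with PTEN knocked out; cells exposed to compound for 60 hours before readout; potency for loss of cell viability measured by luminescence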
[18] = growth suppression of beta-catenin-knockout colon cells, dose response, cell-based, HCT116, human colon tumor (AID 1045); assay type: functional;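 note: HCT116 colon tumor cells with beta catenin knocked out; cells exposed to compound for 60 hours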
[19] = target: T4, DNA repair protein RAD52 homolog (Homo sapiens, UniProt P43351); assay type: functional, biochemical
T4 sequence (P43351 whole entry): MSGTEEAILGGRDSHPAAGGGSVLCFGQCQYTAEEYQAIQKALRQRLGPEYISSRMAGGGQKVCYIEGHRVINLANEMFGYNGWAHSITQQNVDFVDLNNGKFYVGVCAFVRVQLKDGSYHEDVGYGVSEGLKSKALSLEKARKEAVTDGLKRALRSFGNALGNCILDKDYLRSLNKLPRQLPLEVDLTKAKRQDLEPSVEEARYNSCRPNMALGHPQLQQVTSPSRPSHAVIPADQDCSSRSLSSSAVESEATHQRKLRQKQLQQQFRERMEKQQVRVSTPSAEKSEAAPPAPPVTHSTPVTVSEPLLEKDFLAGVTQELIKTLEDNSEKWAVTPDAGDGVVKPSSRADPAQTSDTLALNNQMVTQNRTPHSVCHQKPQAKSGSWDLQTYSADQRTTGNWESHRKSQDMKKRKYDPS

Chain of DNA dC->dU-editing enzyme APOBEC-3G (Q9HC16 whole entry): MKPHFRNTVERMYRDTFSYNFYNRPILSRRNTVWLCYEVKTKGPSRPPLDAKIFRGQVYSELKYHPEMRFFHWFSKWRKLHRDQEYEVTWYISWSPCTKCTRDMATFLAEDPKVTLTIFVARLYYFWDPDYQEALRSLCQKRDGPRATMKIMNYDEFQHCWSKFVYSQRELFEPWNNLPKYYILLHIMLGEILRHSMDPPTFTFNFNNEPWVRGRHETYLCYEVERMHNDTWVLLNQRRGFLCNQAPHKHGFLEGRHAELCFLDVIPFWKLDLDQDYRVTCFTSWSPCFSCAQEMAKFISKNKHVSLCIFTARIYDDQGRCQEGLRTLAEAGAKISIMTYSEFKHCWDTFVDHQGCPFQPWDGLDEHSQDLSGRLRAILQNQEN
Chain of DNA dC->dU-editing enzyme APOBEC-3A (P31941 whole entry): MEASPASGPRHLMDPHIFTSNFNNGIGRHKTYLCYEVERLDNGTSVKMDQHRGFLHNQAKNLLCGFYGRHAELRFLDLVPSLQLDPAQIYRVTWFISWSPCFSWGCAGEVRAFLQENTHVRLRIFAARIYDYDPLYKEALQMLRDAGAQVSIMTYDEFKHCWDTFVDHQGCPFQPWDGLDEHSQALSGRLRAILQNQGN
Chain of Cytochrome P450 2C19 (P33261 whole entry): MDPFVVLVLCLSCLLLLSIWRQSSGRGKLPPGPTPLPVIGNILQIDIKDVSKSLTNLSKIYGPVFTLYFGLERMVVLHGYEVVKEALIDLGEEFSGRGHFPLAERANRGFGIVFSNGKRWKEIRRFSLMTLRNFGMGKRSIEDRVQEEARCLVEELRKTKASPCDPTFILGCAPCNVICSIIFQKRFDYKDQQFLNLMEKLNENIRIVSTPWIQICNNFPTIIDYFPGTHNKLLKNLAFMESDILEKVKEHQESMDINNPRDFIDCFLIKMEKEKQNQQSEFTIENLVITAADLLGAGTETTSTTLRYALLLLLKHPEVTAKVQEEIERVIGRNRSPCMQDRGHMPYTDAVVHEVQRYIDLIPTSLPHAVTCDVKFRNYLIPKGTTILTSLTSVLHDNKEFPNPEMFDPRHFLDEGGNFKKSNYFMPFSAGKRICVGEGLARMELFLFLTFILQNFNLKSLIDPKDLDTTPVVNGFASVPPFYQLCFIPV
Chain of Cytochrome P450 2D6 (P10635 whole entry): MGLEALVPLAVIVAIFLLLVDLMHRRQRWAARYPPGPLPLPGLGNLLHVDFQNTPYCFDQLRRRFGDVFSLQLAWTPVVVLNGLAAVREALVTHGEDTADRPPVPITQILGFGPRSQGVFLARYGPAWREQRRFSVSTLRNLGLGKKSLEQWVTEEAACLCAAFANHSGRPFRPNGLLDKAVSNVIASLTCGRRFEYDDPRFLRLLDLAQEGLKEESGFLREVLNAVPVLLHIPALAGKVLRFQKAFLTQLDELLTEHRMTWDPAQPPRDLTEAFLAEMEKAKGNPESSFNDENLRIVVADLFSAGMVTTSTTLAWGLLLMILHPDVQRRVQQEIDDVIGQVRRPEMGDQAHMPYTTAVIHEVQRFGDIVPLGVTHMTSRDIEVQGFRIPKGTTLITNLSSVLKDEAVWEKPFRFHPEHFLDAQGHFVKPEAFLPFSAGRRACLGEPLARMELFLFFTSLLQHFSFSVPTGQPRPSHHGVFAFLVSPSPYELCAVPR
Chain of Glyceraldehyde-3-phosphate dehydrogenase (P04406 whole entry): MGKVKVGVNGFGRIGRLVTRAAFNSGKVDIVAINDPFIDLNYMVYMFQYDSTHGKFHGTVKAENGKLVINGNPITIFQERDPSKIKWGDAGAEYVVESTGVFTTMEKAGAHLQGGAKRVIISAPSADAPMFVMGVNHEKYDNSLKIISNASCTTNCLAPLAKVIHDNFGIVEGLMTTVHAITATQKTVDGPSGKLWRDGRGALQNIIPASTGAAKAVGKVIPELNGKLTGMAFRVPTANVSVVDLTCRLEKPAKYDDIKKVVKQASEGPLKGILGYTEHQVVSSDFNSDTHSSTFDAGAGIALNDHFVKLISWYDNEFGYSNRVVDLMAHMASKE

CC(=O)/C(C#N)=C1\NC(=O)C(Cc2ccccc2Cl)S1 (stereo not given)
IC50 (Leucine aminopeptidase): 26.6 µM (active) | IC50 (Vero [1]): 2.83 µM (active) | CC50 (Vero [2]): 18.9 µM (active)

O=C(Cc1cccs1)NNC(=S)NC(=O)c1ccccc1
IC50 (Leucine aminopeptidase): 30 µM (active) | EC50 [3]: 4.36 µM (active) | EC50 (Streptokinase A): > 150 µM (not active) | EC50 (Streptococcus): 16.9 µM (active)

COc1ccc(N(CC(=O)N2c3ccccc3CC2C)S(=O)(=O)c2c(C)noc2C)cc1 (stereo not given)
EC50 [4]: > 50 µM (active)

COc1ccc(C(=O)N/C(=C/c2cccs2)c2nc3ccccc3[nH]2)cc1OC
IC50 (cells): 22.6 µM (active)

Cn1c(C(=O)NCc2ccccc2)cc2oc3ccccc3c21
CC50 [5]: 28.9 µM (active) | IC50 (Vero [1]): 1.87 µM (active) | CC50 (Vero [2]): > 25 µM (active) | IC50 (cells): 7.04 µM (active)

Cc1c(NC(=O)CN2C(=O)NC3(CCCCC3C)C2=O)cccc1[N+](=O)[O-] (stereo not given)
IC50 (cells): 11.6 µM (active)

O=C(O)c1cc(N2C(=O)C3C4c5ccccc5C(c5ccccc54)C3C2=O)ccc1O (stereo not given)
IC50 [6]: > 100 µM (not active)

N#CC1=C(SCC(=O)c2ccc(Cl)cc2)N=C2CCCC(O)=C2C1c1ccco1 (stereo not given)
EC50 [7]: 7.64 µM (active) | EC50 [8]: 7.7 µM (active) | AC50 [9]: 2.64 µM (active)

CSc1ncccc1C(=O)Nc1nc(C(C)(C)C)cs1
CC50 [5]: 49.6 µM (active) | IC50 (cells): 4.75 µM (active)

CC(=O)/C(C#N)=C1\NC(=O)C(Cc2ccccc2C)S1 (stereo not given)
CC50 [5]: 5.95 µM (active) | IC50 (Vero [1]): 5.5 µM (active) | CC50 (Vero [2]): > 25 µM (active) | IC50 (cells): 2.54 µM (active)

N#CC1=C2SCN(c3ccccc3)CN2C(=O)CC1c1cccs1 (stereo not given)
IC50 [10]: > 100 µM (inactive) | IC50 [11]: 7.25 µM (active)

CCn1c(-c2cccc(Cl)c2)n[nH]c1=S
IC50 [10]: > 100 µM (inactive) | IC50 [11]: 6.09 µM (active)

Cc1ccc(-c2n[nH]c(=S)n2C)cc1Cl
IC50 [10]: > 100 µM (inactive) | IC50 [11]: 4.34 µM (active)

CCOc1ccc(N(Cc2cc3cc(OC)ccc3nc2O)S(C)(=O)=O)cc1
EC50 [7]: > 20 µM (not active) | EC50 [8]: > 20 µM (not active)

COc1cccc(NC(=O)N2CCCC(C(=O)Nc3ccccc3OC)C2)c1 (stereo not given)
EC50 [4]: > 50 µM (active)

Oc1cc(O)c2sc3nc(-c4cccnc4)cc(C(F)(F)F)c3c2n1
IC50 (Leucine aminopeptidase): 58.2 µM (active)

CCOC(=O)C1=NN(c2ccccc2C)C2=NC(C)=C(C(=O)OC)C(c3cccc(OC)c3)N12 (stereo not given)
EC50 [12]: 2.99 µM (active)

Brc1ccccc1CN1CCN(Cc2c[nH]c3ccccc23)CC1
EC50 [12]: 0.0747 µM (active) | AC50 (INS1): 2.16 µM (active)

CCc1nnc(NS(=O)(=O)c2ccc(/N=C/c3c(C)nn(-c4ccc(C)cc4)c3O)cc2)s1
IC50 (Leucine aminopeptidase): 8.11 µM (active) | AC50 (Cytochrome P450 2C19): 5.01 µM (inconclusive) | AC50 (Cytochrome P450 2D6): 5.62 µM (inconclusive)

Sc1nnc(-c2cccnc2)n1/N=C/c1ccccc1
IC50 [10]: > 100 µM (inactive) | IC50 [11]: 2.02 µM (active)

C[C@@H]1CN([C@@H](C)CO)C(=O)c2c(c3ccccc3n2C)-c2ccccc2CO[C@@H]1CN(C)C(=O)[C@H](C)c1ccccc1
AC50 [13]: 3.29 µM (active)

CCS(=O)(=O)N1CCCCN2[C@H](CO)[C@@H](c3ccc(-c4cccc(C#N)c4)cc3)[C@@H]2C1
AC50 [13]: 9.04 µM (active)

Cc1cc(C)c(CSc2ncnc3[nH]cnc23)c(C)c1
EC50 [4]: > 50 µM (active)

CCCCC[C@H](O)/C=C/[C@H]1C=CC(=O)[C@@H]1C/C=C\CCCC(=O)O [PROSTAGLANDIN A2]
EC50 [7]: > 20 µM (not active) | EC50 [8]: > 20 µM (not active)

CSc1ccc2c(c1)N(CCC1CCCCN1C)c1ccccc1S2 (stereo not given) [THIORIDAZINE HYDROCHLORIDE]
EC50 [14]: > 120 µM (not active) | EC50 [15]: > 60 µM (not active) | EC50 [16]: > 120 µM (not active) | EC50 [7]: 8.18 µM (active) | EC50 [8]: 3.43 µM (active) | EC50 [17]: 11.1 µM (active) | EC50 [18]: 9.28 µM (active) | AC50 [19]: 13.7 µM (active)
